Results published in a melting point compilation (Tetko et al.; mined from patent text by program, amines drawn as free bases though some values may be those of a salt).

| melting point | SMILES |
| --- | --- |
| 134 to 136 °C | CC1(O)OC(=O)C(c2c(F)cc(F)cc2F)=C1c1cccs1 (stereo unspecified) |
| 201 to 203 °C | CCCCNC(=O)Nc1ccc(N(C)C)cc1C(=O)NCC1CCN(C(c2ccccc2)c2ccccc2)CC1 |
| 50 °C | CCCCc1nnc2ccccc2c1Cl |
| 208 to 209 °C | O=C(Cc1cccc(C(=O)O)c1)Nc1cccc(/C=C/c2nc(C3CCC3)cs2)c1 |
| 103 to 105 °C | O=C1c2ccc(-c3cccnc3)cc2CC1Cl (stereo unspecified) |
| 226 °C | Cc1ccc(S(=O)(=O)NC(=O)OCCc2ccc(-n3c(C(C)(C)C)nc4c(C)nc(C)cc43)cc2)cc1 |
| 154 to 155 °C | COCC(C)N(C)Cc1c(-c2ccc(NC(=O)NOC)cc2)sc2c1c(=O)n(-c1ccccc1)c(=O)n2Cc1c(F)cccc1F (stereo unspecified) |
| 80 to 83 °C | COc1ccc2c(c1)C(CC(=O)O)CCO2 (stereo unspecified) |
| 237 to 239 °C | O=C(Cn1c2c(c(=O)n3nc(-c4ccc(Cl)cc4)cc13)CN(C1CCCCC1)C2=O)c1ccccc1 |
| 67 °C | COc1ccc(C(=O)CBr)c2c1OCCO2 |
| 248 °C | CC(NC(=O)c1cc(Cl)ccc1NC(=O)C1CC(=O)NN1)C1CC1 (stereo unspecified) |
| 258 to 260 °C | CC1CCCCC1C(=O)Nc1ccc(-c2ncc(-c3ccc(NC(=O)C4CCCCCC4)cc3)[nH]2)cc1 (stereo unspecified) |
| 264 to 266 °C | Cc1c(C(=O)Nc2ccc(-c3ccc(S(=O)(=O)NC(C(=O)O)C(C)C)cc3)cc2)oc2ccccc12 (stereo unspecified) |
| 42 to 44 °C | CCOC(=O)c1c(C)nc2nccnc2c1NCCCN(C)C |
| 242 to 243 °C | COc1cc2c(cc1OC(C)C)-c1c(-c3cccs3)c3c(n1CC2)C(=O)N(C(C)C)CCNC3 |
| 58 to 60 °C | C[C@@H](S[C@H]1CO[C@H](c2ccccc2)OC1)[C@](O)(Cn1cncn1)c1ccc(F)cc1F |
| 136 to 138 °C | O=C(C1CCCCC1)N1C=C2c3ccccc3CCN2C(=O)C1 |
| 221 to 223 °C | CNC(=O)NN=Cc1ncc([N+](=O)[O-])n1C |
| 100 to 102 °C | CCCNC(=O)c1c(Cl)cccc1OC(C)(CC)CC |
| 67 to 69 °C | COc1c(N)cc(C)cc1N |
| 123 to 125 °C | CCOC(=O)C(Cl)N=Nc1ccccc1C(=O)c1ccccn1 (stereo unspecified) |
| 101 °C | CCCCCCCCCCC=NNC(=N)N |
| 210 to 212 °C | CC1Nc2ccc(S(=O)(=O)N(C)C)cc2S(=O)(=O)N1 (stereo unspecified) |
| 128 to 129 °C | CC(C)COc1ccc(COc2ccc(CC(=O)O)cc2Cl)cc1Cl |
| 97 °C | CCC(O)(CC)c1ccc(-c2ccc(OCc3ccc(CO)c(CO)c3)cc2)c(C)c1 |

| melting point | SMILES |
| --- | --- |
| 95 to 96 °C | Fc1ccc(C(=C(c2ccccc2)C(F)(F)F)c2ccc(OCCN3CCOCC3)cc2)cc1 |
| 55 °C | CCCCCCCNC(=O)N(C)c1cccc(-c2ccc(CC3SC(=O)NC3=O)cc2)c1 (stereo unspecified) |
| 197 to 198 °C | Clc1cc(-c2nnn[nH]2)nc(Cl)c1Cl |
| > 300 °C | O=C1N=C2C=CC=CN2C1(Cc1ccccc1)Cc1ccc(F)cc1 (stereo unspecified) |
| 171 to 172 °C | O=C(O)CCc1cnoc1-c1ccc(C(F)(F)F)cc1 |
| 40 to 48 °C | Nc1[nH]ncc1-c1cccc(N2CCN(CCO)CC2)c1 |
| 163 to 165 °C | COc1nc(-n2ncc(C#N)c2N)c(C(F)(F)F)cc1Cl |
| 140 to 141 °C | CC(C)(C)c1cnc(C(=O)Nc2cc(-c3cc(NC4CCCNC4)c(=O)[nH]n3)ccc2F)cn1 (stereo unspecified) |
| 144 to 149 °C | CCOC(=O)C1CCC(C(=O)OCC)N1C(=O)C(N)Cc1c[nH]c2ccccc12 (stereo unspecified) |
| 96 to 98 °C | CC(C)(C)OC(=O)[C@@H]1CN(Cc2ccccc2)C(=O)N1 |
| 64 to 66 °C | CCOC(=O)C(C)(C)OC(=O)c1cc([N+](=O)[O-])ccc1Cl |
| 129 to 130 °C | Cc1oc(-c2ccccc2)nc1COc1nn(Cc2ccc(Oc3ccccc3)cc2)cc1C=O |
| 137 to 139 °C | COC(=O)C(CO)NS(=O)(=O)c1ccc(Oc2ccncc2)cc1 (stereo unspecified) |
| 235 to 238 °C | Cc1nc2ccc(C)c(Sc3ccncc3)c2c(=O)[nH]1 |
| 210 °C | COc1cc(O)cc2c1C(Br)=C(c1ccc(O)cc1)C2=O |
| 161 to 163 °C | CC(C#N)NC(=O)NC(C)(C)C (stereo unspecified) |
| 188 to 191 °C | CCCc1c(OCCCCCC(=O)c2ccc(O)c(O)c2)ccc(C(=O)O)c1O |
| 142 to 145 °C | Oc1cccc2c1c1cccc(Cl)c1n2Cc1ccc(F)cc1 |
| 94 °C | O=Cc1cc(-c2ncc(C(F)(F)F)cc2Cl)ccc1Cl |
| 183 to 185 °C | CCC1c2ccccc2-c2sc(Br)cc2N1S(=O)(=O)c1ccc(O)cc1 (stereo unspecified) |
| 95 to 98 °C | Cn1nc(-c2cc(C=O)c(Cl)cc2F)c(Cl)c1OC(F)F |
| 236 to 237 °C | N#Cc1ccccc1N1CCN(Cc2nc3ccccc3[nH]2)CC1 |
| 255 to 257 °C | Cc1cc(Cn2cncn2)cc2c1Cc1c(-c3ccsc3)n[nH]c1-2 |
| 101 to 103 °C | CCOC(=O)c1cnn2c(-c3ccc(CC)cc3)ccnc12 |
| 193 to 196 °C | COc1ccc2c(c1O)CN(C)C(=O)C2c1cc(OC)c(OC)c(OC)c1 (single isomer, unassigned; (+)) |

| melting point | SMILES |
| --- | --- |
| 292 to 294 °C | O=C(O)c1cc(-c2ccc(Br)cc2)nc(-c2ccc(Br)cc2)c1 |
| 186 °C | CC1(C)CCC(C)(C)c2cc(NC(=O)c3ccc(C=O)cc3)ccc21 |
| 96 °C | COC(=O)CCCc1cc2nc(Cl)ccc2n1S(=O)(=O)c1ccc(OC)cc1 |
| 144 to 146 °C | NC(=O)Cc1cc(Oc2ccc3c(ccn3C(=O)Nc3cc(N4CCOCC4)cc(C(F)(F)F)c3)c2)ncn1 |
| 298 to 300 °C | CS(=O)(=O)c1ccc2c(c1)[nH]c(=S)n2NC(=O)c1ccc(Cl)c(S(N)(=O)=O)c1 |
| 256 to 257 °C | Nc1cc(C(O)=S)cc(Cc2ccccc2)c1Cc1ccccc1 |
| 118 to 120 °C | CC(C)(C)c1cc(SCCc2nncs2)cc(C(C)(C)C)c1O |
| 183 °C | Cc1ccc2c([nH]c3c(C(=O)N4CCOCC4)cccc32)c1C |
| 36 to 39 °C | CNC(=O)C1CCCN1S(=O)(=O)c1ccc(N2CCC(NC[C@H](O)COc3cccc4[nH]c(=O)[nH]c34)CC2)cc1 (stereo partly specified) |
| 187 to 189 °C | CN(C)C(=S)Nc1ccc(NNC=O)cc1 |
| 38 to 39 °C | CCOC(=O)CC(=O)c1cc(F)c(F)c(C)c1F |
| 186 to 188 °C | Oc1ncncc1Oc1ccccc1 |
| 130 to 131 °C | O=C(O)CCC(=O)c1ccc(N2CCC3(CC2)OCCO3)cc1 |
| 135 to 138 °C | COC(=O)c1cnc(N2CCN(Cc3ccccc3)CC2)nc1OC |
| 168 °C | c1ccc(Nc2ccc(-c3ccc(N(c4ccccc4)c4ccccc4)cc3)cc2)cc1 |
| 175 °C | CC(C)(C)C(=O)C(C(Sc1ccccc1)c1ccc(F)cc1)n1cncn1 (stereo unspecified) |
| 176 to 177 °C | COc1ccc(CC2CCC3=C(CCC(=O)N3)C2)cc1 (stereo unspecified) |
| 32 to 34 °C | O=CN1CCC(Oc2c(F)c(F)c(F)c(F)c2F)CC1 |
| 158 to 160 °C | COc1cccc(Nc2ccnc(Nc3cc(NC(C)=O)c(OC)c(OC)c3)n2)c1 |
| 55 to 57 °C | CCNc1cc(C(C)=O)ccn1 |
| 161 °C | Cc1ccc2c(c1)cc(Cc1ccc(C(=O)O)cc1)n2S(=O)(=O)c1cccc(C(C)(C)C)c1 |
| 104 to 107 °C | CC(C)(CNC(=O)CCCC(=O)O)SN=O |
| 249 °C | O=C1CNc2ncc(I)cc2N1Cc1cccnc1Cl |
| 160 °C | CCC(=O)C(O)(Cc1ccc(C)cc1)c1ccc(N2CCOCC2)cc1 (stereo unspecified) |
| 113 to 114 °C | Cc1c(C(=O)O)ccc(S(C)(=O)=O)c1N(C)C |

| melting point | SMILES |
| --- | --- |
| > 250 °C | Nc1nc(O)c2c(n1)NCC(CCc1ccc(C(=O)N[C@@H](CCC(=O)O)C(=O)O)cc1)C2 (stereo partly specified) |
| 136 to 139 °C | O=Cc1ccc(OCCCC(=O)O)c([N+](=O)[O-])c1 |
| 185 to 188 °C | CCC1C(=O)C2C3CCC(C(C)CCC(=O)O)C3(C)CCC2C2(C)CCC(O)CC12 (stereo unspecified) |
| 128 to 130 °C | CCOC(=O)C1=C(COCC#N)NC(C)=C(C(=O)OC)C1c1ccccc1Cl (stereo unspecified) |
| 210 °C | Cc1cccc(NC(=O)NCC(=O)N2[C@@H](C(=O)N(C)c3ccccc3)CC[C@H]2c2ccccc2)c1 (racemic) |
| 192 to 194 °C | CC(C)c1cccc(C(C)C)c1NC(=O)CC1=C(c2ccccc2)c2cc(Cl)ccc2N(C)C1 |
| 220 to 224 °C | CCNC1CN(c2cc3c(cc2F)c(=O)c(C(=O)O)cn3C2CC2)C1 |
| 243 to 245 °C | CCN1c2ncccc2C(=O)Nc2c(C)cc(-n3ccnc3)nc21 |
| 133 to 134 °C | CCOC(=O)c1cnc(-c2cc3cccc(NS(=O)(=O)c4cccs4)c3n2COC)s1 |
| 94 to 96 °C | C(#Cc1cnc(-c2cccs2)s1)c1ccccc1 |
| 110 °C | Fc1cnc2[nH]ccc2c1 |
| 134 °C | Cc1ccc(C(=S)c2ccc(Cl)cc2)cc1 |
| 95 to 96 °C | Oc1cncc(Cl)c1CCCOc1cccnc1Oc1cccc(Cl)c1 |
| 81 to 94 °C | C=C(C)C(=O)CCCCCCOc1ccc(C(=O)O)cc1 |
| 60 to 63 °C | CC1(C2Cc3ccccc3O2)CCCCC1 (stereo unspecified) |
| 198 °C | CCOC(=O)COc1ccc(-c2nc3ncccc3[nH]2)c(OC)c1 |
| 72 to 75 °C | CC(CNC(c1ccccc1)c1ccccc1)NC(c1ccccc1)c1ccccc1 (stereo unspecified) |
| 95 to 97 °C | CC(=O)OC1CCC(n2cnc3cc(Cl)c(Cl)cc32)C1OC(C)=O (stereo unspecified) |
| 192 to 193 °C | COc1nc(C)c(C)cc1NC(=S)N1CCN(c2cc(C)cc(C)c2)CC1 |
| 177 to 179 °C | CCN1CCN(C(=O)NC(C(=O)O)c2cc(OC(C)=O)c(OC(C)=O)cc2F)C(=O)C1=O (stereo unspecified) |
| 263 to 265 °C | Fc1ccc(-c2[nH]cc(C3CCN4CCCC4C3)c2-c2ccncc2)cc1 (stereo unspecified) |
| 235 to 237 °C | COc1cc2nc(N)nc(-c3c(Br)cc(C)cc3Br)c2cc1OC |
| 108 to 109 °C | CON=C(C)CN(C(=O)c1ccco1)c1c(C)cccc1C |

| SMILES | melting point |
| --- | --- |
| COc1cc(C2=C(c3c[nH]c4ccccc34)C(=O)NC2=O)cc(OC)c1OC | 227 °C |
| O=[N+]([O-])c1ccc2nc(N3CCNCC3)ccc2c1 | 153 °C |
| C=Cc1cn(-c2c(Cl)cc(C(F)(F)F)cc2Cl)nc1C#N | 75 to 76 °C |
